Molecular target: T1, human EAAT3 (Homo sapiens, UniProt P43005)
T1 construct: expressed in transfected cells; host or cells: HEK-293
T1 sequence (P43005 1-524): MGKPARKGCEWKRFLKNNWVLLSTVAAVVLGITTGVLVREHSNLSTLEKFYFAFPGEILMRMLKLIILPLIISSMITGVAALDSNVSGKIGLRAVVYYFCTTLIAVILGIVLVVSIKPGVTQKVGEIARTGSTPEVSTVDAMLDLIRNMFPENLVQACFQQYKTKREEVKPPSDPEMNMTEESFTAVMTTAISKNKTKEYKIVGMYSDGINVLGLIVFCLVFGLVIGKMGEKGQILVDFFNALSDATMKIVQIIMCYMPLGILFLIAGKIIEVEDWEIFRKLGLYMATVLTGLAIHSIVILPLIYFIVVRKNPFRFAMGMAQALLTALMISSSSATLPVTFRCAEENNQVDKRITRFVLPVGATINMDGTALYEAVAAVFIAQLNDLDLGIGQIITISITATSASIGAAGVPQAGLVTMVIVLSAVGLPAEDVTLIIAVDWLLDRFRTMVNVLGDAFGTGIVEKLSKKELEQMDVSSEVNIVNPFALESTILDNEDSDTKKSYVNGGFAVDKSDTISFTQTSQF
Experiment: FLIPR Membrane Potential (FMP) assay
Format: cell-based
Details: HEK-293 cells stably expressing human EAAT3; L-glutamate as agonist at EC80; antagonist applied 15 min before; Kb by Cheng-Prusoff from IC50
Experimental: The FLIPR Membrane Potential (FMP) assay
HEK-293 cells stably expressing human EAAT3 were seeded at 55 000 cells/well in growth medium (DMEM glutamate free (Invitrogen 11960-044), 1% Pen Strep (10 ml/l GIBCO BRL N^o 15140-023), 10% FCS non dialysed heat inactivated, 5 mg/l puromycin) in poly-D-lysine treated 96-well black microtiter plates with clear-bottom. After 24 h, the growth medium was removed and 100 μl/well of Krebs buffer (140 mM NaCl, 4.7 mM KCl, 2.5 mM CaCl2), 1.2 mM MgCl2, 11 mM HEPES, 10 mM D-glucose, pH=7.4) added. The cells were then loaded by adding 100 μl/well FMP assay dye (FLIPR Membrane Potential assay reagent, Molecular Devices). The 96-well plates were then incubated at 37° C. for 1 h. The depolarization of the cells will cause more dye to enter in the cells, where it will bind to intracellular proteins and lipids and cause an increase in the fluorescence signal. Antagonist potency at human EAAT3 was determined by using L-glutamate as agonist at a concentration which gives 80% of the maximum response. The antagonists were applied 15 min before the application of the agonist L-glutamate. The assays were performed at room temperature and measurements done by using a Fluorometric Imaging Plate Reader (FLIPR, Molecular Devices) and filter #2. Responses were measured as peak increase in fluorescence minus basal (i.e. fluorescence without addition of L-glutamate). Kb was determined using the Cheng-Prusoff equation Kb=IC50/[1+(A/EC50)], where IC50 is the concentration of the antagonist producing 50% inhibition, A is the concentration of the agonist against which the IC50 is being determined (at EC80) and EC50 is the concentration of the agonist producing 50% […].

| Kb [nM] | Structure (SMILES) |
| --- | --- |
| 230 | CC(C)n1nccc1-c1cc(C(=O)NC(C)(C)C)cc(-c2ccc(Cl)c(F)c2)n1 [Example 36, N-tert-Butyl-2-(4-chloro-3-fluorophenyl)-6-(2-propan-2-yl-pyrazol-3-yl)-pyridine-4-carboxamide] |
| 450 | CC(C)n1nccc1-c1cc(C(=O)NC(C)(C)C#N)cc(-c2ccc(F)cc2)n1 [Example 45, N-(2-Cyanopropan-2-yl)-2-(4-fluorophenyl)-6-(2-propan-2-yl-pyrazol-3-yl)-pyridine-4-carboxamide] |
| 74 | Cc1cc(-c2cc(C(=O)NC(C)(C)C)cc(-c3ccnn3C(C)(C)C)n2)ccc1F [Example 25, N-tert-Butyl-2-(2-tert-butyl-pyrazol-3-yl)-6-(4-fluoro-3-methyl-phenyl)-pyridine-4-carboxamide] |
| 530 | CC(C)n1nccc1-c1cc(C(=O)NC2(C)CCS(=O)(=O)C2)cc(-c2ccc(F)cc2)n1 (racemic) [Example 43, (RS)-2-(4-Fluorophenyl)-N-(3-methyl-1,1-dioxothiolan-3-yl)-6-(2-propan-2-yl-pyrazol-3-yl)-pyridine-4-carboxamide] |
| 360 | COc1ccc(-c2cc(C(=O)NC(C)(C)C)cc(-c3ccnn3C(C)C)n2)cc1 [Example 35, N-tert-Butyl-2-(4-methoxy-phenyl)-6-(2-propan-2-yl-pyrazol-3-yl)-pyridine-4-carboxamide] |
| 1870 | CC(C)n1nccc1-c1cc(C(=O)NC(C)(C)C)cc(-c2ccc(C#N)cc2)n1 [Example 30, N-tert-Butyl-2-(4-cyano-phenyl)-6-(2-propan-2-yl-pyrazol-3-yl)-pyridine-4-carboxamide] |
| 110 | CC(C)(C)NC(=O)c1cc(-c2ccc(F)c(Cl)c2)nc(-c2ccnn2C(C)(C)C)c1 [Example 21, N-tert-Butyl-2-(2-tert-butyl-pyrazol-3-yl)-6-(3-chloro-4-fluoro-phenyl)-pyridine-4-carboxamide] |
| 89 | CC(C)(C)NC(=O)c1cc(-c2ccc(C#N)cc2)nc(-c2ccnn2C(C)(C)C)c1 [Example 18, N-tert-Butyl-2-(2-tert-butyl-pyrazol-3-yl)-6-(4-cyano-phenyl)-pyridine-4-carboxamide] |
| 240 | CC(C)n1nccc1-c1cc(C(=O)NC(C)(C)C)cc(-c2ccc(F)c(F)c2)n1 [Example 31, N-tert-Butyl-2-(3,4-difluoro-phenyl)-6-(2-propan-2-yl-pyrazol-3-yl)-pyridine-4-carboxamide] |
| 1180 | CC(C)c1ccc(-c2cc(C(=O)NC(C)(C)C)cc(-c3ccnn3C(C)C)n2)cc1 [Example 32, N-tert-Butyl-2-(4-propan-2-yl-phenyl)-6-(2-propan-2-yl-pyrazol-3-yl)-pyridine-4-carboxamide] |
| 560 | CC(C)n1nccc1-c1cc(C(=O)NC(C)(C)C)cc(-c2ccc(C3CC3)cc2)n1 [Example 29, N-tert-Butyl-2-(4-cyclopropyl-phenyl)-6-(2-propan-2-yl-pyrazol-3-yl)-pyridine-4-carboxamide] |
| 530 | CC(C)n1nccc1-c1cc(C(=O)NC(C)(C)C)cc(-c2ccc(F)c(Cl)c2)n1 [Example 33, N-tert-Butyl-2-(3-chloro-4-fluorophenyl)-6-(2-propan-2-yl-pyrazol-3-yl)-pyridine-4-carboxamide] |
| 400 | Cc1ccc(-c2cc(C(=O)NC(C)(C)C)cc(-c3ccnn3C(C)C)n2)cc1F [Example 38, N-tert-Butyl-2-(3-fluoro-4-methyl-phenyl)-6-(2-propan-2-yl-pyrazol-3-yl)-pyridine-4-carboxamide] |
| 260 | Cc1ccc(-c2cc(C(=O)NC(C)(C)C)cc(-c3ccnn3C(C)C)n2)cc1 [Example 34, N-tert-Butyl-2-(4-methyl-phenyl)-6-(2-propan-2-yl-pyrazol-3-yl)-pyridine-4-carboxamide] |
| 85 | COc1ccc(-c2cc(C(=O)NC(C)(C)C)cc(-c3ccnn3C(C)(C)C)n2)cc1 [Example 23, N-tert-Butyl-2-(2-tert-butyl-pyrazol-3-yl)-6-(4-methoxy-phenyl)-pyridine-4-carboxamide] |

— patent US10457663B2, “Pyrazol-pyridine derivatives” (Hoffmann-La Roche Inc., priority 2016, dated 2019)
